Consider eleven molecules from patent US20230066011A1, “PYRROLOPYRIMIDINE DERIVATIVE, AND PHARMACEUTICAL COMPOSITION FOR PREVENTING OR TREATING PROTEIN KINASE-RELATED DISEASE COMPRISING SAME AS ACTIVE INGREDIENT” (VORONOI CO., LTD., priority 2019, published 2023).

Assay [1] has as its target LRRK2 (G2019S) (Homo sapiens, UniProt Q5S007, G2019S). As to the kind of experiment: LRRK2 G2019S enzyme inhibition, ADP-Glo kinase assay. In kind it is biochemical. Also on record: purchased SignalChem L10-12GG. To be noted: ATP 25 μM. The gist of the method: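 Purified human LRRK2 G2019S (16 ng) with 25 μM ATP and 0.2 μg substrate, 2 h at 25° C. in Tris-HCl pH 7.4, MgCl2, BSA, DTT buffer; compounds at 12 final concentrations, 50 μM down to 0.000001024 μM. ADP-Glo luminescence versus solvent control gave IC50.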
(In general: ADP-Glo turns the ADP formed in a reaction into a luminescent signal.)

The subject of assay [2] is IL-6. Kind of assay: Inhibition of LPS-induced IL-6 secretion of THP-1 monocytes (ELISA). The class given is cell-based, human. To be noted: Homo sapiens, THP-1; compound 0.5 μM, LPS 500 ng/mL, 24 hours; read-out: THP1/IL6 (% inhib). How it is done: (§1) To evaluate an inhibitory effect on cytokine secretion of monocytes, THP-1 cells (ATCC, #TIB-202) as a human-derived monocyte line were cultured in an RPMI-1640 (Hyclone, SH30027.01) medium supplemented with 10% fetal bovine serum (Hyclone, SH30084.03), 1% penicillin streptomycin (Welgene, LS202-02), and 50 μM 2-mercaptoethanol (Gibco, #21985023). In the test, the cells were seeded in a 48-well plate (SPL, #30048) at a density of 1.5 to 2×10^5 cells/250 μL per well, and cultured at 37° C. for 16 hours in a 5% CO2 incubator. Thereafter, the compound was diluted with DMSO so that the final concentration of the compound was 0.5 μM. Then, the cells were treated with the diluted compound before an hour of treatment with lipopolysaccharides (LPS) (Sigma, #L6529). After the treatment with the compound, the cells were treated with LPS so that the final concentration was 500 ng/mL. Then, a cell culture broth was collected after 24 hours of culture, and levels of cytokine IL-6 (R&D Systems, #D6050) and TNF-α (R&D Systems, #DTA00D) comprised in the culture broth were measured using respective ELISA kits. After an experiment was performed according to the manufacturer's guidelines, cell analysis was performed by measuring the optical density at 450 nm using a microplate reader.
For orientation: An ELISA detects its analyte on a solid surface through an enzyme-linked reagent.

In assay [3] the target is T1, human GST-DYRK1A (Homo sapiens, UniProt Q13627).
T1 construct: purified human GST-DYRK1A (full length, Thermo Scientifics) enzyme; purchased Thermo Scientifics
Kind of assay: GST-DYRK1A enzyme inhibition, ADP-Glo kinase assay. In kind it is biochemical. To be noted: ATP 10 μM, GST-DYRK1A full length, read-out: DYRK1 IC50. In outline: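 Full-length human GST-DYRK1A (10 ng) with 10 μM ATP and specific substrate in 40 mM Tris-HCl pH 7.4, 20 mM MgCl2, 0.5 mg/mL BSA, 50 μM DTT, 1 h at 25 °C. ADP formation read by ADP-Glo luminescence relative to solvent control; IC50 from three data sets.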

Assay [4] deals with T2, human GST-CLK1 (Homo sapiens, UniProt P49759).
T2 construct: purified human GST-CLK1 (129-end, SignalChem) enzyme; purchased SignalChem
As to the kind of experiment: GST-CLK1 enzyme inhibition, ADP-Glo kinase assay. The class given is biochemical. To be noted: ATP 10 μM, GST-CLK1 129-end. The gist of the method:
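Human GST-CLK1 (129-end, 3 ng) reacted with substrate and 10 μM ATP for 1 h at 25° C in 40 mM Tris-HCl pH 7.4, 20 mM MgCl2, 0.5 mg/mL BSA, 50 μM DTT. ADP-Glo luminescence was normalised to solvent control; IC50 (nM) from 3 data sets.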

Assay [5] relates to TNF-α. As to the kind of experiment: Inhibition of LPS-induced TNF-α secretion of THP-1 monocytes (ELISA). To be noted: Homo sapiens, THP-1; compound 0.5 μM, LPS 500 ng/mL, 24 hours; read-out: THP-1/TNF-α (% inhib). In kind it is cell-based, human. How it is done: as §1
Assay [6] concerns human DYRK1A and tau. As to the kind of experiment: Inhibition of tau phosphorylation, ClariCELL Kinase Cell-Based Assay, HEK 293 cells expressing human DYRK1A and tau. To be noted: for inhibition at 1 µM: HEK293, read-out: % inhibition at 1 uM, tau phosphorylation, compound 1 uM; for inhibition at 0.25 µM / inhibition at 0.5 µM: HEK293, tau phosphorylation; for inhibition at 0.25 µM: compound 0.25 uM; for inhibition at 0.5 µM: compound 0.5 uM. How it is done:
An inhibitory effect on tau phosphorylation was determined using the ClariCELL™ Kinase Cell-Based Assay service (commercially available from CamaBio USA, Inc.). Human embryonic kidney (HEK 293) cells temporarily expressing human DYRK1A and tau were exposed to the compound, and then lysed to release cell proteins. In this case, the released tau was captured on a plate, and a degree of phosphorylation was quantified by ELISA using a tau phosphorylation-specific antibody.

Assay [7] deals with LRRK2 (Homo sapiens, UniProt Q5S007). As to the kind of experiment: LRRK2 enzyme inhibition, ADP-Glo kinase assay. In kind it is biochemical. The arrangement: purchased Invitrogen PR8604B. To be noted: ATP 10 μM. The gist of the method: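 Purified human LRRK2 (25 ng) with 10 μM ATP and 0.2 μg substrate in 40 mM Tris-HCl pH 7.4, 20 mM MgCl2, 0.5 mg/mL BSA, 50 μM DTT, 2 h at 25° C. ADP-Glo luminescence; 12-point compound series from 50 μM final; IC50 relative to solvent control.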
LRRK2, sequence (Q5S007 970-2527 limits assumed): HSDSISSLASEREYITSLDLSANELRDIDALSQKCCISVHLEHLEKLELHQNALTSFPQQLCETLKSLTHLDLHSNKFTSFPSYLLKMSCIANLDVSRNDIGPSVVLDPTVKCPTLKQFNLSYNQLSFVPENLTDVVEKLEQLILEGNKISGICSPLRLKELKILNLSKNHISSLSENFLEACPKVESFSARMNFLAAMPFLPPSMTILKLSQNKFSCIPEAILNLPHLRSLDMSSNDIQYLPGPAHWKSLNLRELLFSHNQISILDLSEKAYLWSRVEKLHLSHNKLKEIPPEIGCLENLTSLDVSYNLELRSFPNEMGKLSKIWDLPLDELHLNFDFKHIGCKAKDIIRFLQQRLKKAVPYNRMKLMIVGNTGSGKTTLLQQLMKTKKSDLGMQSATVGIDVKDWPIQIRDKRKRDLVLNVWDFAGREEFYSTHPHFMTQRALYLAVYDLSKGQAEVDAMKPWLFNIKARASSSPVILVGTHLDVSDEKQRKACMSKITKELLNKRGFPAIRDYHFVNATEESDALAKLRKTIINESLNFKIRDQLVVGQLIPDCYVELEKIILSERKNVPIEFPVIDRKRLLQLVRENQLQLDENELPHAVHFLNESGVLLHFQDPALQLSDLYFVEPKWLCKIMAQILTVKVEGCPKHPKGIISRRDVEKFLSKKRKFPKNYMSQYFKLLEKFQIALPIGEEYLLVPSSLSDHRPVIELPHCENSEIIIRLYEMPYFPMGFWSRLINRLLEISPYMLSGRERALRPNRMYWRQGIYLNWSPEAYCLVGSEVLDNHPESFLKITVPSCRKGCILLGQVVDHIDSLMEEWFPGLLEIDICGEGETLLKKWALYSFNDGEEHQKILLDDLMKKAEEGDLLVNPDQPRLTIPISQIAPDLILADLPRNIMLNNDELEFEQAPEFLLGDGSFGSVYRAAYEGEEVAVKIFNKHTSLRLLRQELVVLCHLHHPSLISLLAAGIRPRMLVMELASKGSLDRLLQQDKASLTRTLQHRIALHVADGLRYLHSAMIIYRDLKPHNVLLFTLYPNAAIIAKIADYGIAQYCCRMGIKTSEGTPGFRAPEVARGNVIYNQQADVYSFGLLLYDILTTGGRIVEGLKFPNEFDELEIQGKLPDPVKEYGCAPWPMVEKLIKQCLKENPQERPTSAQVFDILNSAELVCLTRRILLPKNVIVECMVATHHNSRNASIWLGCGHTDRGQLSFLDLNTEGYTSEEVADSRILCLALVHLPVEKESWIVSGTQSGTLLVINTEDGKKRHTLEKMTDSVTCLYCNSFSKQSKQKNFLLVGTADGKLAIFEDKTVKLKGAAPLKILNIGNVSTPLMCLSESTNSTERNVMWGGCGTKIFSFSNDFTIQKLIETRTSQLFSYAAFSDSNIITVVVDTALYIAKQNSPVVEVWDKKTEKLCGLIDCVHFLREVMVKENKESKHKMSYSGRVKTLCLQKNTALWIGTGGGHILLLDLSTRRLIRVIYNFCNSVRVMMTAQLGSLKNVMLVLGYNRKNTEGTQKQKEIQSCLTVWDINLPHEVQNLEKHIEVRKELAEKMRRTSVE

LRRK2 (G2019S), sequence (Q5S007 970-2527 G2019S limits assumed): as the sequence (Q5S007 970-2527 limits assumed) above, with G1050S counted along it
T2 sequence (P49759 129-484 limits assumed): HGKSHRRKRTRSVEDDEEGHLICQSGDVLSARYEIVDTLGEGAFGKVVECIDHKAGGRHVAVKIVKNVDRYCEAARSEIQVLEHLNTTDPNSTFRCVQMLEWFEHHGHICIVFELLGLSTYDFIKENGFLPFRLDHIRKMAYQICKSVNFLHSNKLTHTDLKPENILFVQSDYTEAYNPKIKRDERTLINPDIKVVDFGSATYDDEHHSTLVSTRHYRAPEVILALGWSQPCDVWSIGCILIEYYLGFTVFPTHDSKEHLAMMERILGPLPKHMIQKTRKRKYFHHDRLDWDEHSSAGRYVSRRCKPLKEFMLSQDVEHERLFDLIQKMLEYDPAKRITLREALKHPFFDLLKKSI

With `O=C(c1ccc(Nc2nc(N[C@@H]3CCOC3)c3c(C(F)(F)F)c[nH]c3n2)c2c1OCCO2)N1CCN(C2COC2)CC1` [Example 416, (R)-(4-(oxetan-3-yl)piperazin-1-yl)(8-((4-((tetrahydrofuran-3-yl)amino)-5-(trifluoromethyl)-7H-pyrrolo[2,3-d]pyrimidin-2-yl)amino)-2,3-dihydrobenzo[b] [1,4]dioxin-5-yl)methanone], the IC50 in assay [1], in assay [3] and in assay [4] was less than 100 nM in each case. The values for the inhibition at 0.5 µM in assay [2], in assay [5] and in assay [6] were 45.6%, 8.1% and 75.9%, respectively. Besides, the inhibition at 1 µM in assay [6] is 86.8%. Moreover, the inhibition at 0.25 µM in assay [6] is 54.2%.

For the molecule `COCCNc1nc(Nc2ccc(C(=O)N3CCOCC3)c3c2OCC3)nc2[nH]cc(C(F)(F)F)c12` [Example 442, (7-((4-((2-methoxyethyl)amino)-5-(trifluoromethyl)-7H-pyrrolo[2,3-d]pyrimidin-2-yl)amino)-2,3-dihydrobenzo-furan-4-yl) (morpholino) methanone], the inhibition at 0.5 µM in assay [2] amounted to 31.4%; in assay [5] it was 1.9%; in assay [6], 51.5%. The IC50 in assay [3] and in assay [4] was less than 100 nM throughout. Further, the inhibition at 1 µM in assay [6] was 80.8%. The molecule also yielded an inhibition at 0.25 µM in assay [6] of 45%.

For `CC(C)CNc1nc(Nc2ccc(C(=O)N3CCC(N4CCOCC4)CC3)c3c2OCC3)nc2[nH]cc(C(F)(F)F)c12` [Example 448, (7-((4-(iso-butylamino)-5-(trifluoromethyl)-7H-pyrrolo[2,3-d]pyrimidin-2-yl)amino)-2,3-dihydrobenzo-furan-4-yl)(4-morpho-linopiperidin-1-yl)methanone], the IC50 was less than 100 nM in assay [1], less than 100 nM in assay [7], 101 to 300 nM in assay [3] and less than 100 nM in assay [4]. In addition, the inhibition at 0.5 µM is 26.2% in assay [2] and 17.7% in assay [5].

Regarding `COCCNc1nc(Nc2ccc(C(=O)N3CCC(N4CCOCC4)CC3)c3c2OCCO3)nc2[nH]cc(C(F)(F)F)c12` [Example 366, (8-((4-((2-methoxyethyl)amino)-5-(trifluoromethyl)-7H-pyrrolo[2,3-d]pyrimidin-2-yl)amino)-2,3-dihydrobenzo[b] [1,4]dioxin-5-yl) (4-morpholino-piperidin-1-yl)methanone], the IC50 in assay [1], in assay [7], in assay [3] and in assay [4] was less than 100 nM in each case. Moreover, the figures for the inhibition at 0.5 µM in assay [2] and in assay [5] were 1.1% and 19.2%, respectively.

`CCNc1nc(Nc2ccc(C(=O)N3CC[C@@H](N4CCOCC4)C3)c3c2OCC3)nc2[nH]cc(C(F)(F)F)c12` [Example 476, (R)-(7-((4-(ethylamino)-5-(trifluoromethyl)-7H-pyrrolo[2,3-d]pyrimidin-2-yl)amino)-2,3-dihydrobenzo-furan-4-yl)(3-morpholino-pyrrolidin-1-yl)methanone]: the IC50 in assay [1], in assay [7], in assay [3] and in assay [4] was less than 100 nM each time. The figures for the inhibition at 0.5 µM in assay [2] and in assay [5] were 47.4% and 24.5%, respectively.

With `CCNc1nc(Nc2ccc(C(=O)N3CCC(N4CCOCC4)CC3)c3c2OCO3)nc2[nH]cc(C(F)(F)F)c12` [Example 213, (7-((4-(ethylamino)-5-(trifluoromethyl)-7H-pyrrolo[2,3-d]pyrimidin-2-yl)amino)benzo[d][1,3]dioxol-4-yl)(4-morpholinopiperidin-1-yl)methanone], the IC50 in assay [1], in assay [7], in assay [3] and in assay [4] was less than 100 nM in each case. Moreover, the values for the inhibition at 0.5 µM in assay [2] and in assay [5] were 32.4% and 11.5%, respectively.

For `CCCNc1nc(Nc2ccc(C(=O)N3CCC(N4CCOCC4)CC3)c3c2OCC3)nc2[nH]cc(C#N)c12` [Example 349, 2-((4-(4-morpholino-piperidine-1-carbonyl)-2,3-dihydro-benzofuran-7-yl)amino)-4-(propylamino)-7H-pyrrolo[2,3-d]pyrimidine-5-carbonitrile], the inhibition at 0.5 µM in assay [2] was found to be 32.9%; in assay [5], 36.7%; in assay [6], 37%. Further, the 50% inhibitory concentration (IC50) in assay [3] and in assay [4] was less than 100 nM in each case. In addition, in assay [6], the inhibition at 1 µM is 53.4%. In addition, the inhibition at 0.25 µM in assay [6] is 21%.

Consider `CNc1nc(Nc2ccc(C(=O)N3CCC(N4C[C@@H]5C[C@H]4CO5)CC3)c3c2OCC3)nc2[nH]cc(C(F)(F)F)c12` [Example 230, (4-((1S,4S)-2-oxa-5-azabicyclo[2.2.1]heptan-5-yl)piperidin-1-yl)(7-((4-(methylamino)-5-(tifluoromethyl)-7H-pyrrolo[2,3-d]pyrimidin-2-yl)amino)-2,3-dihydrobenzofuran-4-yl)methanone], for which the IC50 in assay [1], in assay [7], in assay [3] and in assay [4] was less than 100 nM each time. Also, the results for the inhibition at 0.5 µM in assay [2] and in assay [5] were 34% and 1%, respectively.

Regarding `CC(C)Nc1nc(Nc2ccc(C(=O)N3CCC(N4CCOCC4)CC3)c3c2OCC3)nc2[nH]cc(C(F)(F)F)c12` [Example 450, (7-((4-(isopropylamino)-5-(trifluoromethyl)-7H-pyrrolo[2,3-d]pyrimidin-2-yl)amino)-2,3-dihydrobenzo-furan-4-yl)(4-morpho-linopiperidin-1-yl)methanone], the inhibition at 0.5 µM was determined as 11.4% in assay [2], 7.5% in assay [5] and 66.8% in assay [6]. Besides, the IC50 in assay [3] and in assay [4] was less than 100 nM in each case. The inhibition at 1 µM in assay [6] was determined as 84.9%. In assay [6], this molecule came in with an inhibition at 0.25 µM of 37.2%.

On to `CNc1nc(Nc2ccc(C(=O)N3CC[C@@H](N4CCOCC4)C3)c3c2OCC3)nc2[nH]cc(C(F)(F)F)c12` [Example 237, (R)-(7-((4-(methylamino)-5-(trifluoromethyl)-7H-pyrrolo[2,3-d]pyrimidin-2-yl)amino)-2,3-dihydrobenzofuran-4-yl)(3-morpholinopyrrolidin-1-yl)methanone], for which the IC50 in assay [1], in assay [7], in assay [3] and in assay [4] was less than 100 nM each time. The inhibition at 0.5 µM in assay [2] stood at 41.1%; in assay [5], 18.9%.

As to `O=C(c1ccc(Nc2nc(NC3CCOCC3)c3c(C(F)(F)F)c[nH]c3n2)c2c1OCCO2)N1CCN(C2COC2)CC1` [Example 420, (4-(oxetan-3-yl)piperazin-1-yl)(8-((4-((tetrahydro-2H-pyran-4-yl)amino)-5-(trifluoromethyl)-7H-pyrrolo[2,3-d]pyrimidin-2-yl)amino)-2,3-dihydrobenzo[b] [1,4]dioxin-5-yl)methanone], the IC50 in assay [7], in assay [3] and in assay [4] was less than 100 nM throughout. Besides, the inhibition at 0.5 µM in assay [2] amounted to 20.2%; in assay [5] it was 31.6%.

One may read the IC50 as the concentration that gives 50% inhibition.
